Read-outs that look alike come from different tables or passages of the source.
Columns and labels:
HeLa MKYP cells [1] = assay: Human mitophagy assay (HeLa mKeima assay, FACS); format: cell-based; details: read-out: Mitophagy induction EC50
Protocol: Briefly, HeLa MKYP cells were plated at 10,000 cells/well in 96 well plates along with compounds at various concentrations. Following 16 hrs of incubation, cells were treated with 1 uM FCCP/oligomycin for 6 hours, then analyzed via FACS for the presence of mitochondria in lysosomes (as determined by an emissions spectrum shift from the pH-sensitive mtKeima tag).
Briefly, HeLa cells expressing a mitophagy indicator (mtKeima) protein were treated with […] of FCCP and Oligomycin followed by the specified dose of compound, then analyzed by FACS to quantify the percentage of cells undergoing mitophagy.

HeLa MKYP cells [2] = assay: Cell death measured by DAPI staining, with 1 μM FCCP/oligomycin or no toxin (no FO); format: cell-based
Protocol: EP-0035985, EP-0037821, EP-0038098, and EP-0038099 in the presence of 1 μM FCCP/oligomycin or with no toxin (no FO) for 6 hrs. H2O2 treatment was performed as a control for cell death as measured by DAPI staining.
EP-0035985, EP-0038461, EP-0038463, and EP-0038503 in the presence of 1 μM FCCP/oligomycin or with no toxin (no FO) for 6.5 hrs. H2O2 treatment was performed as a control for cell death as measured by DAPI staining.
EP-0035985, EP-0038504, EP-0038508, and EP-0038521 in the presence of 1 μM FCCP/oligomycin or with no toxin (no FO) for 6.5 hrs. H2O2 treatment was performed as a control for cell death as measured by DAPI staining.
EP-0035985, EP-0038461, EP-0038463, EP-0038503, EP-0038504, EP-0038508, and EP-0038521 in the presence of 1 μM FCCP/oligomycin or with no toxin (no FO) for 6.5 hrs. H2O2 treatment was performed as a control for cell death as measured by DAPI staining.

Row | SMILES | EC50 (HeLa MKYP cells [1]; Homo sapiens, HeLa) | Highest safe dose (cytotoxicity; no FO; safe means DAPI+ <20%) (HeLa MKYP cells [2]) | Max % death with 1 μM FO (HeLa MKYP cells [2]) | EC50 (HeLa MKYP cells [1])
1 | C[C@@H]1COCCN1[C@H]1CCc2ccccc2[C@@H]1Nc1ncnc2[nH]c(C3CC3)cc12 (single isomer, unassigned) [EP-0040339] | > 25 µM | 25.0 µM | 16.5% | 
2 | C[C@@H]1CN([C@H]2COc3ccccc3[C@@H]2Nc2ncnc3[nH]c(C4CC4)cc23)CCO1 [EP-0040957] | 22.8 µM | 25.0 µM | 3.8% | 
3 | FC(F)(F)c1cc2c(N[C@H]3c4ccccc4OC[C@@H]3N3CCOCC3)ncnc2[nH]1 (single isomer, unassigned) [EP-0040251] | > 25 µM | 25.0 µM | 3.1% | 
4 | FC(F)(F)c1cc2c(N[C@H]3c4ccccc4C[C@@H]3N3C[C@H]4COC[C@H]4C3)ncnc2[nH]1 [EP-0039754] | > 25 µM | 25.0 µM | 17.7% | 
5 | Fc1ccc2c(c1)OC[C@H](N1C[C@H]3COC[C@@H]3C1)[C@H]2Nc1ncnc2[nH]c(C(F)(F)F)cc12 (single isomer, unassigned) [EP-0040563] |  | 25.0 µM | 9.7% | 1.05 µM
6 | c1ccc2c(c1)OC[C@H](N1C[C@H]3COC[C@H]3C1)[C@H]2Nc1ncnc2[nH]c(C3CC3)cc12 (single isomer, unassigned) [EP-0040391] | > 25 µM | 25.0 µM | 3.9% | 
7 | c1ccc2c(c1)CC[C@@H](C1CCOCC1)[C@H]2Nc1ncnc2[nH]c(C3CC3)cc12 [EP-0040626] | 7.11 µM | 25.0 µM | 29.3% | 
8 | C[C@H]1CN([C@H]2COc3cc(F)ccc3[C@@H]2Nc2ncnc3[nH]c(C(F)(F)F)cc23)CCO1 [EP-0040981] | 2.44 µM | 25.0 µM | 7.0% | 
9 | c1ccc2c(c1)OC[C@@H](N1CCOCC1)[C@H]2Nc1ncnc2[nH]c(C3CC3)cc12 [EP-0040140] | 8.71 µM | 25.0 µM | 11.1% | 
10 | C[S@@](=N)(=O)C1CN(C2COc3ccccc3C2Nc2ncnc3[nH]c(C(F)(F)F)cc23)C1 (single isomer, unassigned) [EP-0041498] | > 25 µM | 25.0 µM | 3.7% | 
11 | C[C@@H]1CN([C@@H]2CCc3ccccc3[C@H]2Nc2ncnc3[nH]c(C(F)(F)F)cc23)C[C@H](C)O1 (single isomer, unassigned) [EP-0040494] | > 25 µM | 25.0 µM | 4.1% | 
12 | C[C@@]12COC[C@]1(C)CN(C1CCc3ccccc3C1Nc1ncnc3[nH]c(C(F)(F)F)cc13)C2 (stereo partly drawn) [EP-0040523] | 2.73 µM | 25.0 µM | 39.0% | 
13 | Fc1ccc2c(c1)OC[C@H](N1C[C@@H]3COC[C@H]3C1)[C@H]2Nc1ncnc2[nH]c(C3CC3)cc12 (single isomer, unassigned) [EP-0040873] |  | 25.0 µM | 4.3% | > 25 µM
14 | Fc1ccc2c(c1)OC[C@H](N1C[C@H]3COC[C@H]3C1)[C@H]2Nc1ncnc2[nH]c(C(F)(F)F)cc12 (single isomer, unassigned) [EP-0040268] | > 25 µM | 25.0 µM | 3.2% | 
15 | Fc1ccc2c(c1)OC[C@H](N1C[C@H]3COC[C@@H]3C1)[C@H]2Nc1ncnc2[nH]c(C(F)(F)F)cc12 (single isomer, unassigned) [EP-0040747] |  | 25.0 µM | 5.8% | > 25 µM
16 | COC[C@H]1CCCN1[C@H]1COc2ccccc2[C@@H]1Nc1ncnc2[nH]c(C(F)(F)F)cc12 (single isomer, unassigned) [EP-0041492] | 1.78 µM | 25.0 µM | 8.3% | 
17 | C[C@H]1CN([C@@H]2COc3ccccc3[C@H]2Nc2ncnc3[nH]c(C4CC4)cc23)CCO1 [EP-0041000] | 1.32 µM | 25.0 µM | 6.5% | 
18 | Fc1cccc2c1CC[C@H](N1C[C@H]3COC[C@H]3C1)[C@H]2Nc1ncnc2[nH]c(C3CC3)cc12 (single isomer, unassigned) [EP-0040576] | 2.79 µM | 25.0 µM | 21.2% | 
19 | FC(F)(F)c1cc2c(N[C@H]3c4ccccc4CC[C@H]3C3CCOCC3)ncnc2[nH]1 [EP-0040557] | > 25 µM | 25.0 µM | 2.7% | 
20 | C[C@@H]1CN([C@H]2COc3ccccc3[C@@H]2Nc2ncnc3[nH]c(C(F)(F)F)cc23)C[C@H](C)O1 [EP-0040942] | > 25 µM | 25.0 µM | 4.7% | 
21 | C[S@](=N)(=O)C1CN([C@H]2COc3ccccc3[C@@H]2Nc2ncnc3[nH]c(C(F)(F)F)cc23)C1 (single isomer, unassigned) [EP-0041495] |  | 25.0 µM | 2.9% | 2.52 µM
22 | C[C@@H]1CN([C@@H]2CCc3ccccc3[C@H]2Nc2ncnc3[nH]c(C4CC4)cc23)C[C@H](C)O1 (single isomer, unassigned) [EP-0040499] | 5.2 µM | 25.0 µM | 4.3% | 
23 | COC1(C)CN(C2COc3ccccc3C2Nc2ncnc3[nH]c(C(F)(F)F)cc23)C1 (single isomer, unassigned) [EP-0041300] | 4.35 µM | 25.0 µM | 11.1% | 
24 | C[C@@H]1CN([C@@H]2CCc3ccccc3[C@H]2Nc2ncnc3[nH]c(C(F)(F)F)cc23)CCO1 (single isomer, unassigned) [EP-0040492] | > 25 µM | 25.0 µM | 1.8% | 
25 | OC[C@H]1CN([C@H]2COc3ccccc3[C@@H]2Nc2ncnc3[nH]c(C(F)(F)F)cc23)CCO1 (single isomer, unassigned) [EP-0041559] |  | 25.0 µM | 3.7% | 10.3 µM
26 | C[S@](=N)(=O)C1CN([C@H]2COc3ccccc3[C@@H]2Nc2ncnc3[nH]c(C(F)(F)F)cc23)C1 (single isomer, unassigned) [EP-0041497] |  | 25.0 µM | 2.6% | 22 µM
27 | CN1CCN(C2COc3ccccc3C2Nc2ncnc3[nH]c(C4CC4)cc23)CC1=O (racemic) [EP-0041600] | > 25 µM | 25.0 µM | 4.9% | 
28 | C[C@@H]1CN([C@H]2COc3cc(F)ccc3[C@@H]2Nc2ncnc3[nH]c(C(F)(F)F)cc23)CCO1 [EP-0041087] | 9.38 µM | 25.0 µM | 5.1% | 

From patent US20240018146A1, “COMPOSITIONS AND METHODS OF USING THE SAME FOR TREATMENT OF NEURODEGENERATIVE AND MITOCHONDRIAL DISEASE” (MITOKININ, INC., priority 2020, published 2024)
